Results: patent publication US20050143291A1, “Methods and compositions for modulating apoptosis” (priority 2003, published 2005)
Blank lines part the entries; values can stand above or below the molecule they belong to.

Key:
[1] = tested on: Control cells; assay: % Survival (Colony Assay), control cells; type: cell-based
Method: (§1) Experiments were also performed to determine the anti-apoptotic effect conferred by overexpression of GRP78. This task was completed.
(§2) Clonogenic Survival Assays—Four thousand cells were seeded into 10-cm-diameter dishes. […] After drug treatment, the cells were grown in fresh medium for 10 to 14 days. The colonies were washed with ice-cold PBS, fixed with methanol, and stained with 10% Giemsa staining solution. The surviving fraction was determined by dividing the number of the surviving colonies in the drug-treated cells by the number of colonies in the non-treated control groups.

[2] = tested on: GRP78 Overexpression cells; assay: % Survival (Colony Assay), GRP78 overexpression; type: cell-based; settings: for % Survival (Colony Assay): GRP78 Overexpression; for effect of GRP78 overexpression on sensitivity to the drug: GRP78 overexpression versus control
Method: as §1, §2

[3] = tested on: caspase-7; assay: In vitro caspase-7 activation assay, cell-free extracts with cytochrome c and dATP; type: biochemical, Chinese hamster
Method: FIG. 5, Panel C depicts cytoplasmic extracts prepared from CHO and C.1 cells and incubated with (+) or without (−) 10 μM cytochrome c and the various amounts of dATP (mM) as indicated.
Among the executor caspases, caspase-7 has been reported to be associated with the ER. Upon induction of apoptosis, procaspase-7 (35 kDa) is first converted into a 32-kDa intermediate, which is further processed into active 20- and 11-kDa subunits. […] Upon longer exposure of the autoradiogram, the active 20- and 11-kDa forms were evident in the etoposide-treated cells. When GRP78 was overexpressed, a low level of caspase-7 activation was detected in both the non-treated and etoposide-treated cells. […] In addition, upon addition of cytochrome c, caspase-7 activation was higher in CHO cells than C.1 cells, as evidenced by the increase in the active 20- and 11-kDa forms in the CHO samples compared with the C.1 samples.
The cells were suspended in 5 volumes of a hypotonic buffer (5 mM Tris-HCl, pH 7.4, 5 mM KCl, 1.5 mM MgCl2, 0.1 mM EGTA, pH 8.0, and 1 mM dithiothreitol) in the presence of 2 μg/ml leupeptin, pepstatin, and aprotinin protease inhibitors. After incubation on ice for 20 min, sucrose was added to a final concentration of 250 mM, and the cells were disrupted by douncing eight times in a 1-ml Wheaton Dounce homogenizer. The homogenate was centrifuged twice at […] for 10 min. […]

[4] = tested on: CHO cells; assay: Cell cycle analysis (FACS), CHO cells; type: cell-based, Chinese hamster; settings: CHO cells treated with UPR inducer, versus exponentially growing cells
Method: (§3) Cell Cycle Analysis—Following seeding, exponentially growing cells were trypsinized at different days and fixed in 70% ethanol. The fixed cells were treated with PBS containing 0.1% (v/v) Triton X-100, 0.2 mg/ml DNase-free RNase, and 20 μg/ml propidium iodide (PI) for 30 min at room temperature. The cell cycle distributions were analyzed by fluorescence-activated cell sorting (FACS) analysis (FACstar; BD Biosciences). The cell cycle distribution measurements were repeated three to four times.
(§4) In both the vector-transfected and GRP78 overexpressing cells, the percentage of G1, S, and G2 cells is similar.

[5] = tested on: T24/83 cells; assay: Cell cycle analysis (FACS), T24/83 cells; type: cell-based, human; settings: T24/83 cells treated with UPR inducer
Method: as §3, §4

[6] = tested on: GRP78; assay: Specificity of Grp78 siRNA in 293T cells (Western blot of GRP78, GRP94, HSP70); type: cell-based, human; settings: β-actin loading control
From the text: (§5) The concentrations of siRNA Grp78 II used were indicated on top.
When blasted against the human genomic sequence, this sequence is unique and in principle, should not affect any other human gene. […] The level of β-actin was used as loading control.

[7] = tested on: GRP78; assay: Suppression of GRP78 level by siRNA in MDA-MB-435 cells (Western blot); type: cell-based, human
From the text: as §5
(§6) This translates to more death in the cells treated with Grp78(II) siRNA than control siRNA targeted against the unrelated green fluorescence protein (FIG. 16).

[8] = tested on: MDA-MB-435 cells; assay: Etoposide-mediated cell death after siRNA in breast cancer cells; type: cell-based, human
From the text: as §6

[9] = target: T1, glucose regulated protein 78 (GRP78), wild-type, as present in CHO cells (endogenous) and C.1 cells … (hamster, UniProt G3I8R9 19-654); assay: co-immunoprecipitation from CHO and C.1 whole cell extracts, Western blot
T1 construct: Protein in cell lysates used for co-immunoprecipitation, not purified; also called BiP; wild-type GRP78
T1 sequence (G3I8R9 19-654 limits assumed): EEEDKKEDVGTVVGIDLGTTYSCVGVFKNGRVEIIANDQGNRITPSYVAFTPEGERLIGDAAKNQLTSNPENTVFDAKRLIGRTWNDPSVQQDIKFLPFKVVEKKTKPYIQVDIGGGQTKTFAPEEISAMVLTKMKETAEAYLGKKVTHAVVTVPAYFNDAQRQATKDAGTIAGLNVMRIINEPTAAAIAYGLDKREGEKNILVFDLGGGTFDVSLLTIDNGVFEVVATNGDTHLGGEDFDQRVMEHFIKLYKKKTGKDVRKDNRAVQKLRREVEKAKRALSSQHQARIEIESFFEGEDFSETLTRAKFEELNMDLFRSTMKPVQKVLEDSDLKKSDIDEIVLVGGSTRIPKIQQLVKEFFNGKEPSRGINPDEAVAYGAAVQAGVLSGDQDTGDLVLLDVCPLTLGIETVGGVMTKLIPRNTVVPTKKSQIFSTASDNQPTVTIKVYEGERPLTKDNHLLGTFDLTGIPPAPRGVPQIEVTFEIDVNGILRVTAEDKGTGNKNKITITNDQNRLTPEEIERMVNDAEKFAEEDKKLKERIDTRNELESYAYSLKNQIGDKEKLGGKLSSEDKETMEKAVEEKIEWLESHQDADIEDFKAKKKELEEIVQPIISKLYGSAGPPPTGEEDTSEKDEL
Method: Co-immunoprecipitation Assays—2×10⁶ cells were lysed in 400 μl of extraction buffer (50 mM Tris-HCl, pH 7.5, 150 mM NaCl, 0.5% Nonidet P-40, and 0.5% deoxycholate, with protease inhibitor tablet (Roche Molecular Biochemicals)) and frozen and thawed three times. 500 μg of total protein extract from each sample was pretreated with 50 μl of protein A-Sepharose beads (Sigma) for 1 h at 4° C. prior to incubation with 5 μg of either anti-caspase-7 mouse monoclonal antibody or anticaspase-3 antibodies for 2 h. Following the incubation period, 50 μl of protein A-Sepharose beads was added, and the mixtures were rotated at 4° C. overnight. The beads were then washed five times with the extraction buffer. The immunoprecipitate was released from the washed beads by the addition of 30 μl of 1×SDS-PAGE sample loading buffer (50 mM Tris-HCl, pH 6.8, 100 mM dithiothreitol, 2% SDS, 0.1% bromphenol blue, 10% glycerol), followed by heating at 100° C. for 10 min. The supernatant obtained after centrifugation was resolved by SDS-PAGE and subjected to Western blot analysis to detect the co-immunoprecipitated proteins.

Molecule: CC[C@@]1(O)C(=O)OCc2c1cc1n(c2=O)Cc2cc3ccccc3nc2-1 [Camptothecin]
% Survival (Colony Assay) ([1]; camptothecin 5 ng/ml): 68%
% Survival (Colony Assay) ([1]; camptothecin 20 ng/ml): 0.7%
% Survival (Colony Assay) ([1]; camptothecin 60 ng/ml): 0%
% Survival (Colony Assay) ([2]; camptothecin 5 ng/ml): 82%
% Survival (Colony Assay) ([2]; camptothecin 20 ng/ml): 22%
% Survival (Colony Assay) ([2]; camptothecin 60 ng/ml): 2%
effect of GRP78 overexpression on sensitivity to the drug [2]: confers resistance

Molecule: N.N.[Cl][Pt][Cl] [Cisplatin]
% Survival (Colony Assay) ([1]; cisplatin 3.3 μM): 43%
% Survival (Colony Assay) ([1]; cisplatin 6.6 μM): 3.7%
% Survival (Colony Assay) ([1]; cisplatin 9.9 μM): 0%
% Survival (Colony Assay) ([1]; cisplatin 13.0 μM): 0%
% Survival (Colony Assay) ([2]; cisplatin 3.3 μM): 60%
% Survival (Colony Assay) ([2]; cisplatin 6.6 μM): 50%
% Survival (Colony Assay) ([2]; cisplatin 9.9 μM): 27%
% Survival (Colony Assay) ([2]; cisplatin 13.0 μM): 16%
effect of GRP78 overexpression on sensitivity to the drug [2]: confers resistance

Molecule: COc1cccc2c1C(=O)c1c(O)c3c(c(O)c1C2=O)C[C@@](O)(C(=O)CO)C[C@@H]3O[C@H]1C[C@H](N)[C@H](O)[C@H](C)O1 [Doxorubicin]
% Survival (Colony Assay) ([1]; doxorubicin 0.2 μg/ml): 80%
% Survival (Colony Assay) ([1]; doxorubicin 0.4 μg/ml): 42%
% Survival (Colony Assay) ([1]; doxorubicin 0.6 μg/ml): 2%
% Survival (Colony Assay) ([1]; doxorubicin 0.8 μg/ml): 0%
% Survival (Colony Assay) ([1]; doxorubicin 1.0 μg/ml): 0%
% Survival (Colony Assay) ([2]; doxorubicin 0.2 μg/ml): 95%
% Survival (Colony Assay) ([2]; doxorubicin 0.4 μg/ml): 84%
% Survival (Colony Assay) ([2]; doxorubicin 0.6 μg/ml): 68%
% Survival (Colony Assay) ([2]; doxorubicin 0.8 μg/ml): 48%
% Survival (Colony Assay) ([2]; doxorubicin 1.0 μg/ml): 32%
effect of GRP78 overexpression on sensitivity to the drug [2]: confers resistance

Molecule: Nc1ncnc2c1ncn2[C@H]1C[C@H](O)[C@@H](COP(=O)(O)OP(=O)(O)OP(=O)(O)O)O1 [dATP]
caspase-7 forms in CHO versus C.1 extracts ([3]; 1 mM dATP with cytochrome c): equivalent amounts of the 32- and 20-kDa forms
effect on GRP78-mediated suppression of caspase-7 activation ([3]; C.1 extracts in the presence of both cytochrome c and dATP): suppressive effect of the C.1 samples was reversed

Molecule: C/C=C(/C)C(=O)O[C@H]1C(C)=C2[C@H]([C@@H]1OC(=O)CCCCCCC)[C@@](C)(OC(C)=O)C[C@H](OC(=O)CCC)[C@@]1(O)[C@H]2OC(=O)[C@@]1(C)O [thapsigargin]
cell cycle distribution [4]: more cells in G1 and a dramatic reduction in S phase cells
cell cycle distribution [5]: a higher percentage of G1 cells and a lower percentage in S phase

Molecule: Grp78(II) siRNA: siRNA duplex 5′ AAGGTTACCCATGCAGTTGTT 3′ (SEQ ID NO:4) and complement (SEQ ID NO:17) targeting GRP78 (antisense AACAACTGCATGGGTAACCTT; listed as DNA, chemistry not given here; listed as Homo sapiens)
effect on GRP78, GRP94 and HSP70 levels [6]: only GRP78 level is suppressed
siRNA concentration that significantly suppresses GRP78 level [7]: ≥ 80 nM
cell death versus control siRNA against green fluorescence protein [8]: more death

Molecule: tunicamycin
cell cycle distribution [4]: more cells in G1 and a dramatic reduction in S phase cells
cell cycle distribution [5]: a higher percentage of G1 cells and a lower percentage in S phase

binding result [9]: no binding
B1: procaspase-3 (endogenous, CHO and C.1 cells) (enzyme)
chain: MENTENSVDSKSIKNLEPKIIHGSESMDSGISLDNSYKMDYPEMGLCIIVNNKNFHKSTGMTSRSGTDVDAANLRETFRNLKYGVRNKNDLTREGIVELMRDVSKEDHSKRSSFVCVLLSHGEEGIIFGTNGPVDLKKITNFFRGDRCRSLTGKPKLFIIQACRGTELDCGIETDSGVGDDMACHKIPVEADFLYAYSTAPGYYSWRNSKDGSWFIQSLCAMLKQYADKLEFMHILTRVNRKVATEFESFSFDATFHAKKQIPCIVSMLTKELYFYH
notes: Zymogen form, in whole cell extracts
